Measurements taken from patent US8834921B2, “Sustained-release liposomal anesthetic compositions” (Pacira Pharmaceuticals, Inc., priority 1997, dated 2014).
Counter-ions that a name gives are not always drawn.

Key:
mice = test: Determination of maximum tolerated dose (MTD), subcutaneous test; type: in vivo; details: highest dose at which none of the animals experienced systemic toxicity
Excerpt: (§1) Male guinea pigs weighing 800-1000 grams (Harlan-Sprague-Dawley, San Diego, Calif.) were used for efficacy studies. Male guinea pigs (Harlan-Sprague-Dawley) weighing 400-600 grams were used for pharmacokinetic studies. The animals were housed, 1 per cage, in a temperature-controlled environment with alternating 12-hour periods of light and darkness and given unrestricted access to food and water. Prior to each study, animals were habituated to the environment for at least 7 days. Female CDI mice (Sprague-Dawley) weighing 22-28 grams were used for determination of maximum tolerated dose (MTD). All animals were maintained in accordance with guidelines of the Committee on Care and Use of Laboratory Animals of the Institute of Laboratory Animal Resources, National Research Council.
Determination of maximum tolerated dose (MTD) was done in mice using a subcutaneous test known in the art (R. H. de long et al., Anesthesiology 54:177-81, 1981). Groups of three mice each were given injections of either 780 or 980 mg per kg body weight of the above-described MVL formulation containing bupivacaine sulfate as two divided doses of 500 μl each (total 1.0 mL volume). The doses were administered in rapid sequence into each flank. Control groups of 3 mice each received one of the test doses as a single dose of 10, 20, 30 or 50 mg/kg body weight of unencapsulated bupivacaine hydrochloride. […]

in vivo = test: in vivo; design: species or system guinea pigs; details: guinea pig; for half-life: t1/2 (hr)
Excerpt: as §1
The in vivo pharmacokinetics of the MVL formulations of bupivacaine and free bupivacaine hydrochloride were compared following a single 1 mL intracutaneous dose of the MVL formulation containing 1.0 percent (w/v) of bupivacaine, or a dose of 0.5 percent (w/v) of unencapsulated bupivacaine hydrochloride to a group of guinea pigs. […] For the animals that received free bupivacaine hydrochloride, samples were collected at 0 and 30 minutes, and 1, 3, 6 and 9 hours following injection, while the animals that received the MVL formulations of bupivacaine were sampled 0, 6, 12, 18, 24, 48, and 72 hours following injection. At each time point, 3 or more animals were first anesthetized with halothane and then exanguinated by cardiac puncture. Serum samples were obtained by centrifugation of clotted whole blood. Skin was collected around the injection site with 3 cm margins, together with a 2-3 mm layer of underlying subcutaneous tissue. The skin and serum samples were kept frozen at −20° C. until analysis.
The amount of total bupivacaine remaining in the injection site was obtained by mincing the tissue followed by in toto homogenization in water using a Polytron homogenizer (Brinkman, Littau, Switzerland). Bupivacaine was extracted from the homogenate and analyzed by HPLC using a previously published method (Le Guevello et al., J. Chromatography 622:284-290, 1993). Bupivacaine concentration in serum was determined by extraction followed by HPLC (Le Guevello et al., supra). Tetracaine spiked into each sample before extraction was used as an internal standard. The limit of detection of the assay was 20 ng/mL.
Pharmacokinetic data obtained from the samples were analyzed using a noncompartmental model (WinNonlin software, Scientific Consulting, Inc., Apex, N.C.). Parameters calculated were the drug amount remaining at the injection site, the area under the “amount vs. time” curve (AUC), and drug half-life (t1/2,). In addition to the AUC and half-life, peak concentration (Cmax) was also reported for serum bupivacaine pharmacokinetics.
One way analysis of variance (ANOVA) was used to separately determine dose dependency for the different drug formulations and route of administration (via MVL or free drug) as well as for comparison between formulations. Student-Newman-Keuls tests were used on all ANOVA analyses.

SMILES: CCCCN1CCCCC1C(=O)Nc1c(C)cccc1C (centres unmarked) [Bupivacaine hydrochloride]
- maximum tolerated dose (MTD) (mice): about 20 mg/kg of body weight
- AUC (mg * hr), Skin (in vivo): 2.9 mg·h
- tolerability of the intracutaneous dose (in vivo): unable to tolerate
- AUC (in vivo; male): 21200 ng·h/mL
- Cmax (in vivo; male): 6500 ng/mL
- Peak Amount (mg), Skin (in vivo; male): 3.8 mg
- half-life (in vivo; male, Serum): 2.1 h
- half-life (in vivo; male, Skin): 1.3 h
